Assay results published in publication PMC6501587 (The Journal of neuroscience : the official journal of the …, 2009).
Changes are numbered by the printed parent chain. Where two headings read alike, the source gives them in different places.

Legend:
P2X2aR [1] = molecular target: T1, P2X2aR (Rattus norvegicus, UniProt P49653); assay type: cell-based; settings: for effect on the ATP-gated current: 10 μM metal pre-applied 1 min and co-applied with 30 μM ATP; for washout period sufficient to restore normal response: after 10 μM metal
T1 sequence (P49653 1-472): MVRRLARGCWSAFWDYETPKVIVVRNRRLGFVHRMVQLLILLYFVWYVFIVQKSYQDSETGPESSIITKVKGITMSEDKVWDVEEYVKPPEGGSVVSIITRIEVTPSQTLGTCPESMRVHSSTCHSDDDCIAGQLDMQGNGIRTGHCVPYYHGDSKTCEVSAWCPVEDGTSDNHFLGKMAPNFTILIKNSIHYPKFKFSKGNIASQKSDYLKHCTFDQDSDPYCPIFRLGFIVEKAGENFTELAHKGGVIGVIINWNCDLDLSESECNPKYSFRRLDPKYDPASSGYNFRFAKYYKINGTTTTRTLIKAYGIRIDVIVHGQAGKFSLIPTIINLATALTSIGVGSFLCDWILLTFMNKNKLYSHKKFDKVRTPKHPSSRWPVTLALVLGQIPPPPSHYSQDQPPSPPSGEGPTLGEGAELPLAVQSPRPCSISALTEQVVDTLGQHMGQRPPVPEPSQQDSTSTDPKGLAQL

P2X4R = molecular target: T2, P2X4R (Rattus norvegicus, UniProt P51577); assay type: cell-based; settings: oocytes; for effect on ATP-induced currents: 10 μM metal pre-applied 1 min and co-applied with 10 μM ATP
T2 sequence (P51577 1-388): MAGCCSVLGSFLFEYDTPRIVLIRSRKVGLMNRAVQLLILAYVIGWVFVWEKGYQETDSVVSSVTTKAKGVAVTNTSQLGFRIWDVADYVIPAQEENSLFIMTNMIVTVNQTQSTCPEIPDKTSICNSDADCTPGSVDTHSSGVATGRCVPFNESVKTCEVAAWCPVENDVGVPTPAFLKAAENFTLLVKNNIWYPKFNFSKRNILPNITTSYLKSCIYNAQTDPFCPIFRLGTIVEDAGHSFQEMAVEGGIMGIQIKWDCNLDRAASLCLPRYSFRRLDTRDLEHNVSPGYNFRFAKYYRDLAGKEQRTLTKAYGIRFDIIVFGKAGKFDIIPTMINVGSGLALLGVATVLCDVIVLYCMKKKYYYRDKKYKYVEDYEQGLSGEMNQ

P2X4/2b chimera = assay type: cell-based, rat; settings: oocytes
P2X2bR [2] = molecular target: T3, P2X2bR (Rattus norvegicus, UniProt P49653, DEL370-438); assay type: cell-based; settings: oocytes
T3 sequence (P49653 with tags, fused parts or gaps DEL370-438): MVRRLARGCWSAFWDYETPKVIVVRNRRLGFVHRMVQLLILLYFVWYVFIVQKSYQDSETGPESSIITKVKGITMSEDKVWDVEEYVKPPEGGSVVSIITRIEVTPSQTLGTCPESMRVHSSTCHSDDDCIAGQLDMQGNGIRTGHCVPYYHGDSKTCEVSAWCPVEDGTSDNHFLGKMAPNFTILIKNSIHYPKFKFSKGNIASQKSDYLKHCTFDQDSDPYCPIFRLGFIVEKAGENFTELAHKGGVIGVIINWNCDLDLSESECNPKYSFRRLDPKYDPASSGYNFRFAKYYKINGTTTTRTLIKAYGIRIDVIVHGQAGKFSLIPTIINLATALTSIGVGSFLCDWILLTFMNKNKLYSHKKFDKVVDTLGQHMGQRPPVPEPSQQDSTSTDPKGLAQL

P2X2a-C430S [3] = molecular target: T4, P2X2a-C430S (Rattus norvegicus, UniProt P49653, C430S); assay type: cell-based; settings: oocytes; for potentiation compared to wild type P2X2aR: copper or zinc
T4 sequence (P49653 1-472 C430S): T1 sequence (P49653 1-472) with C430S

P2X4/2a chimera = assay type: cell-based, rat; settings: oocytes; for effect on deactivation constant: copper or zinc
P2X2a-C430S [4] = molecular target: T4, P2X2a-C430S; assay type: cell-based; settings: HEK293 cells
P2X2a-C430A = molecular target: T5, P2X2a-C430A (Rattus norvegicus, UniProt P49653, C430A); assay type: cell-based; settings: oocytes; for potentiation compared to wild type P2X2aR: zinc or copper
T5 sequence (P49653 1-472 C430A): T1 sequence (P49653 1-472) with C430A

P2X2aR [5] = molecular target: T1, P2X2aR; assay: ATP-evoked currents, whole-cell patch clamp, HEK293 cells expressing P2X2aR; assay type: cell-based
P2X2bR [6] = molecular target: T3, P2X2bR; assay type: cell-based; settings: HEK293 cells
P2X2R = settings: after application; ref Mason et al. (2004); cited from earlier work
[7] = saturating concentration of ATP

Compound: O[C@@H](CS)[C@@H](O)CS (racemic) [DTT, dithiothreitrol]
- effect on ATP-evoked currents (P2X2aR [1]; 1 mM DTT alone, oocytes): did not modify the ATP-evoked currents
- effect of co-application with H2O2 (P2X2aR [1]; DTT co-applied with H2O2, oocytes): abolished the effect of H2O2
- effect on receptor activity (P2X4R; DTT alone): did not modify the receptor activity
- effect of co-application with H2O2 (P2X4R; DTT co-applied with H2O2): the inhibition was completely obliterated

Compound: Nc1ncnc2c1ncn2[C@@H]1O[C@H](COP(=O)([O-])OP(=O)([O-])OP(=O)([O-])O)[C@@H](O)[C@H]1O.[Na+].[Na+].[Na+] [ATP, ATP tri sodium salt]
- EC50 (P2X4/2b chimera; ATP alone, Hill equation): 4.6 ± 2.4 µM
- nH (P2X4/2b chimera; ATP): 1.2 ± 0.1
- Imax (P2X4/2b chimera; [7]): 14.0 ± 1.5 μA
- EC50 (P2X2bR [2]; ATP alone, Hill equation): 59.2 ± 9.1 µM
- nH (P2X2bR [2]; ATP): 1.4 ± 0.3
- Imax (P2X2bR [2]; [7]): 15.6 ± 1.9 μA
- 10–90% deactivation time (P2X2aR [1]; ATP alone (before mercury), oocytes): 4.4 ± 0.2 s
- EC50 (P2X2aR [1]; ATP alone, Xenopus laevis oocytes, Hill equation): 33.3 ± 2.5 µM
- nH (P2X2aR [1]; ATP, oocytes, Hill equation): 1.4 ± 0.1
- Imax (P2X2aR [1]; saturating concentration of ATP, oocytes): 12.1 ± 2.9 μA
- EC50 (P2X2a-C430S [3]; ATP alone, Hill equation): 45 ± 6.3 µM
- nH (P2X2a-C430S [3]; ATP): 1.4 ± 0.3
- Imax (P2X2a-C430S [3]; [7]): 11.8 ± 0.8 μA
- 10–90% deactivation time (P2X4/2a chimera; ATP alone (before mercury)): 12.6 ± 1.1 s
- EC50 (P2X4/2a chimera; ATP alone, Hill equation): 4.8 ± 0.6 µM
- nH (P2X4/2a chimera; ATP): 0.9 ± 0.2
- Imax (P2X4/2a chimera; [7]): 6.7 ± 1.5 μA
- EC50 (P2X2a-C430S [4]; ATP alone, Hill equation): 18.1 ± 3.3 µM
- nH (P2X2a-C430S [4]; ATP): 1.5 ± 0.6
- Imax (P2X2a-C430S [4]; [7]): 5.4 ± 0.9 nA
- EC50 (P2X2a-C430A; ATP alone, Hill equation): 293 ± 70 µM
- nH (P2X2a-C430A; ATP): 1.2 ± 0.3
- reduction of ATP potency compared to the wild type (P2X2a-C430A): 10 fold
- Imax (P2X2a-C430A; [7]): 1.2 ± 0.5 μA
- nH (P2X2aR [5]; ATP): 1.2 ± 0.2
- EC50 (P2X2aR [5]; ATP alone, Hill equation): 10.2 ± 1.3 µM
- Imax (P2X2aR [5]; [7]): 4.6 ± 0.3 nA
- EC50 (P2X4R; ATP alone, Hill equation): 11 ± 2.6 µM
- Imax (P2X4R; [7]): 4.7 ± 0.6 μA
- EC50 (P2X2bR [6]; ATP alone, Hill equation): 7.6 ± 1.3 µM
- nH (P2X2bR [6]; ATP): 1.1 ± 0.3
- Imax (P2X2bR [6]; [7]): 4.2 ± 0.9 nA

Compound: CSS(C)(=O)=O [MMTS, Methylmethane-thiosulfonate]
- effect on H2O2 potentiation (P2X2aR [1]): abolished
- current increase by agent alone (transient and reversible) (P2X2aR [1]; MMTS alone, oocytes, data not shown): 20%
- effect on mercury-induced potentiation (P2X2aR [1]; MMTS treatment, oocytes): abolished

Compound: [Cl][Cu][Cl] [copper]
- inhibition of ATP-evoked currents (P2X4/2b chimera; 10 μM copper, 1 μM ATP): 55 ± 12%
- increase of 10–90% deactivation time (P2X2aR [1]): 2 fold
- effect on the ATP-gated current (P2X2aR [1]; oocytes): potentiated
- washout period sufficient to restore normal response (P2X2aR [1]; oocytes): ≤ 10 min
- potentiation compared to wild type P2X2aR (P2X2a-C430S [3]): not changed
- inhibition of ATP-evoked currents (P2X4/2a chimera; 10 μM copper, 1 μM ATP): 50%
- effect on deactivation constant (P2X4/2a chimera): did not modify significantly
- decrease of maximal ATP response (P2X4/2a chimera; copper, not shown): 40%
- increase of ATP-gated currents (P2X2a-C430S [4]; 10 μM metal, ATP ~EC15): 4.2 ± 0.9 fold
- potentiation compared to wild type P2X2aR (P2X2a-C430A): not significantly altered
- increase of ATP-evoked currents (P2X2aR [5]; 10 μM metal, ATP ~EC15): 4.5 ± 0.5 fold
- effect on ATP-induced currents (P2X4R): inhibited
- increase of ATP-gated currents (P2X2bR [6]; 10 μM metal, ATP ~EC15): 5.7 ± 1.5 fold

Compound: CO/C(=C/C(N)=O)[C@H](C)[C@H](/C=C/c1csc(-c2csc([C@@H](C)/C=C/C=C/C(C)C)n2)n1)OC [myxothiazol]
- sensitivity to myxothiazol (P2X2bR [2]): insensitive
- effect of higher concentrations on receptor activity (biphasic) (P2X2aR [1]; higher concentrations, data not shown, expression system not given): inhibited the receptor activity
- maximal potentiation of ATP-evoked currents (P2X2aR [1]; myxothiazol applied 10 min prior to ATP, oocytes): 1.95 ± 0.18 fold
- effect on P2X2R-mediated currents (P2X2R): transient increase followed by sustained inhibition
- increase of ATP-evoked currents (P2X2aR [5]; 100 nM myxothiazol, 3 μM ATP): 1.95 ± 0.14 fold
- sensitivity to myxothiazol (P2X2bR [6]): insensitive

Compound: C=C(C)[C@H]1Cc2c(ccc3c2O[C@@H]2COc4cc(OC)c(OC)cc4[C@@H]2C3=O)O1 [rotenone]
- potentiation by rotenone (P2X2bR [2]; 600 nM): not observed
- fold-increase of the ATP-evoked currents (P2X2aR [1]; 600 nM rotenone, 10 min prior to ATP, oocytes): 1.75 ± 0.38 fold
- effect on P2X2R-mediated currents (P2X2R): transient increase followed by sustained inhibition
- fold-increase of the ATP-evoked currents (P2X2aR [5]; 600 nM rotenone): 1.52 ± 0.08 fold
- potentiation by rotenone (P2X2bR [6]; 600 nM): not observed

Compound: [Cl-].[Cl-].[Zn+2] [zinc]
- potentiation of receptor activity (P2X4/2b chimera; 10 μM zinc, 1 μM ATP): 2.6 ± 0.3 fold
- effect on the ATP-gated current (P2X2aR [1]; oocytes): potentiated
- washout period sufficient to restore normal response (P2X2aR [1]; oocytes): ≤ 10 min
- potentiation compared to wild type P2X2aR (P2X2a-C430S [3]): not changed
- potentiation of 1 μM ATP-induced current (P2X4/2a chimera; 10 μM metal, 1 μM ATP): 2.6 ± 0.3 fold
- effect on deactivation constant (P2X4/2a chimera): did not modify significantly
- potentiation compared to wild type P2X2aR (P2X2a-C430A): not significantly altered
- effect on ATP-induced currents (P2X4R): potentiated
